Patent publication US10662187B2, “Bruton's tyrosine kinase inhibitors” (Zibo Biopolar Changsheng Pharmaceutical Co. Ltd., priority 2016, dated 2020)

target: BTK (Homo sapiens (Human), UniProt Q06187); experiment: Btk kinase assay (HTRF); type: biochemical; conditions: not given
Procedure: Btk Kinase Assay and Other Kinases Assay Btk kinase activity was determined using a homogenous time resolved fluorescence (HTRF) methodology. Measurements were performed in a reaction volume of 15 μL using 384-well assay plates. Kinase enzyme, inhibitor, ATP and 1 μM peptide substrate were incubated in a reaction buffer compose of Hepes 50 mM (pH7.0), NaN3 0.02%, BSA 0.01%, Orthocanadate 0.1 mM. […] For each compound, enzyme activity as measured at various concentrations of compound, Negative control reactions were performed in the absence of inhibitor in two replicates and eight no enzyme controls were used to determine baseline fluorescence levels.

Chain of BTK (Q06187 whole entry, species assumed): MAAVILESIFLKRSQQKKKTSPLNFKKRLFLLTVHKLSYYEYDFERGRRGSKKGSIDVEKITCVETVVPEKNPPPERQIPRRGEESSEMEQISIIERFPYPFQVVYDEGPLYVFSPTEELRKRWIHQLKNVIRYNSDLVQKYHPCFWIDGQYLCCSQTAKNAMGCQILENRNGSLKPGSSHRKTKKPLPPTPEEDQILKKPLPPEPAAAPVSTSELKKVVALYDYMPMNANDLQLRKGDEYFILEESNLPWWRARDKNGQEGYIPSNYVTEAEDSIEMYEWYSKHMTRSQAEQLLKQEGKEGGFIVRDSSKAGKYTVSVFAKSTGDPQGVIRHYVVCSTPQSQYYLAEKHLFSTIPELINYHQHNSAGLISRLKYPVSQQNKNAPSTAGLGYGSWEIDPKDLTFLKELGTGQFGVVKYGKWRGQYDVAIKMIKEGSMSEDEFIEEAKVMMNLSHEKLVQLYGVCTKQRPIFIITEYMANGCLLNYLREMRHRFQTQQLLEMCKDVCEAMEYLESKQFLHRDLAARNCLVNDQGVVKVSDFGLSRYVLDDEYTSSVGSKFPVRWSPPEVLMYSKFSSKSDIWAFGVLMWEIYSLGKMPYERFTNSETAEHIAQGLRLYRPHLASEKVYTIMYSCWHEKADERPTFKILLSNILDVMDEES

SMILES	IC50
C=CC(=O)N1CCC[C@@H](n2nc(-c3ccc(COc4ccccc4)cc3)c3ccccc32)C1 [Compound 102, (R)-1-(3-(3-(4-(phenoxymethyl)phenyl)-1H-indazol-1-yl)piperidin-1-yl)prop-2-en-1-one]	0.01 to 0.1 µM

same assay, conditions: [ATP]=80 μM, BTK=3.4 nM; read-out: BTK Inhibition

IC50	SMILES
0.01 to 0.1 µM	C=CC(=O)N1CC[C@@H](n2nc3ccncc3c2-c2ccc(Oc3cccc(F)c3Cl)cc2)C1 [Compound 38, (R)-1-(3-(3-(4-(2-chloro-3-fluorophenoxy)phenyl)-2H-pyrazolo[4,3-c]pyridin-2-yl)pyrrolidin-1-yl)prop-2-en-1-one]
0.1 to 1 µM	CC#CC(=O)N1CCC[C@@H](n2nc(-c3ccc(C(=O)Nc4ccccn4)cc3)c3cnccc32)C1 [Compound 105, (R)-4-(1-(1-(but-2-ynoyl)piperidin-3-yl)-1H-pyrazolo [4,3-c]pyridin-3-yl)-N-(pyridin-2-yl)benzamide]
< 0.01 µM	C=CC(=O)N1CCC[C@@H](n2nc(-c3ccc(Oc4cccc(OC)c4F)cc3)c3cncc(F)c32)C1 [Compound 70, (R)-1-(3-(7-fluoro-3-(4-(2-fluoro-3-methoxyphenoxy)phenyl)-1H-pyrazolo[4,3-c]pyridin-1-yl)piperidin-1-yl)prop-2-en-1-one]
< 0.01 µM	C=CC(=O)N1CC[C@@H](n2nc(-c3ccc(Oc4ccccc4)cc3)c3cncc(F)c32)C1 [Compound 66]
0.1 to 1 µM	C=CC(=O)N1CCC[C@@H](n2nc(-c3ccc(C(=O)NCc4cccc(OC)c4)cc3)c3cnccc32)C1 [Compound 104, (R)-4-(1-(1-acryloylpiperidin-3-yl)-1H-pyrazolo[4,3-c]pyridin-3-yl)-N-(3-methoxybenzyl)benzamide]
0.01 to 0.1 µM	COc1cccc(Oc2ccc(-c3nn([C@@H]4CCCN(C(=O)/C(C#N)=C/C(C)(C)C)C4)c4c(OC)cncc34)cc2)c1F [Compound 90, (R,E)-2-(3-(3-(4-(2-fluoro-3-methoxyphenoxy)phenyl)-7-methoxy-1H-pyrazolo[4,3-c]pyridin-1-yl)piperidine-1-carbonyl)-4,4-dimethylpent-2-enenitrile]
< 0.01 µM	C=CC(=O)N1CC2(CC(n3nc(-c4ccc(Oc5cccc(OC)c5F)cc4)c4cnccc43)C2)C1 [Compound 26, 1-(6-(3-(4-(2-fluoro-3-methoxyphenoxy)phenyl)-1H-pyrazolo[4,3-c]pyridin-1-yl)-2-azaspiro[3.3]heptan-2-yl)prop-2-en-1-one]
0.01 to 0.1 µM	C=CC(=O)N1CCC(Cn2nc(-c3ccc(Oc4ccccc4)cc3)c3cnccc32)C1 (stereo not shown) [Compound 21, 1-(3-((3-(4-phenoxyphenyl)-1H-pyrazolo[4,3-c]pyridin-1-yl)methyl)pyrrolidin-1-yl)prop-2-en-1-one]
0.01 to 0.1 µM	C=CC(=O)N1CCC[C@@H](n2nc(-c3ccc(Oc4cccc(OC)c4F)cc3)c3cncc(OCCN)c32)C1 [Compound 87, (R)-1-(3-(7-(2-aminoethoxy)-3-(4-(2-fluoro-3-methoxyphenoxy)phenyl)-1H-pyrazolo[4,3-c]pyridin-1-yl)piperidin-1-yl)prop-2-en-1-one]
< 0.01 µM	C=CC(=O)N1CCC[C@@H](n2nc(-c3ccc(Oc4cccc(C)c4C)cc3)c3cnccc32)C1 [Compound 24, (R)-1-(3-(3-(4-(2,3-dimethylphenoxy)phenyl)-1H-pyrazolo[4,3-c]pyridin-1-yl)piperidin-1-yl)prop-2-en-1-one]
0.1 to 1 µM	C=CC(=O)N1CCC[C@@H](n2nc(-c3ccc(N4CCN(S(C)(=O)=O)CC4)cc3)c3cnccc32)C1 [Compound 115, (R)-1-(3-(3-(4-(4-(methylsulfonyl)piperazin-1-yl)phenyl)-1H-pyrazolo[4,3-c]pyridin-1-yl)piperidin-1-yl)prop-2-en-1-one]
0.01 to 0.1 µM	C=CC(=O)N1CCC[C@@H](n2nc(-c3ccc(Oc4cccc(Cl)c4C)cc3)c3cnccc32)C1 [Compound 56, (R)-1-(3-(3-(4-(3-chloro-2-methylphenoxy)phenyl)-1H-pyrazolo[4,3-c]pyridin-1-yl)piperidin-1-yl)prop-2-en-1-one]
0.01 to 0.1 µM	C=CC(=O)N1CC[C@@H](n2nc(-c3ccc(Oc4cccc(F)c4OC)cc3)c3cnccc32)C1 [Compound 49, (R)-1-(3-(3-(4-(3-fluoro-2-methoxyphenoxy)phenyl)-1H-pyrazolo[4,3-c]pyridin-1-yl)pyrrolidin-1-yl)prop-2-en-1-one]
0.01 to 0.1 µM	C=CC(=O)N1CCC[C@@H](n2nc(-c3ccc(Oc4cccc(OC)c4F)cc3)c3cncc(C(F)F)c32)C1 [Compound 72, (R)-1-(3-(7-(difluoromethyl)-3-(4-(2-fluoro-3-methoxyphenoxy)phenyl)-1H-pyrazolo[4,3-c]pyridin-1-yl)piperidin-1-yl)prop-2-en-1-one]
1 to 10 µM	C=CC(=O)N1CCC[C@@H](n2nc(Nc3ccc(N4CCN(C)CC4)cc3)c3cnccc32)C1 [Compound 114, (R)-1-(3-(3-((4-(4-methylpiperazin-1-yl)phenyl)amino)-1H-pyrazolo[4,3-c]pyridin-1-yl)piperidin-1-yl)prop-2-en-1-one]
0.01 to 0.1 µM	C=CC(=O)N1CCC[C@@H](n2nc(-c3ccc(Oc4cccc(F)c4C)cc3)c3cnccc32)C1 [Compound 16, (R)-1-(3-(3-(4-(3-fluoro-2-methylphenoxy)phenyl)-1H-pyrazolo[4,3-c]pyridin-1-yl)piperidin-1-yl)prop-2-en-1-one]
0.1 to 1 µM	CC#CC(=O)N1CCC[C@@H](n2nc(-c3ccc(Oc4cccc(OC)c4Cl)cc3)c3cnccc32)C1 [Compound 25, (R)-1-(3-(3-(4-(2-chloro-3-methoxyphenoxy)phenyl)-1H-pyrazolo[4,3-c]pyridin-1-yl)piperidin-1-yl)but-2-yn-1-one]
0.1 to 1 µM	C=CC(=O)N1CC2(CC(n3nc(-c4ccc(Oc5cccc(OC)c5Cl)cc4)c4cnccc43)C2)C1 [Compound 30, 1-(6-(3-(4-(2-chloro-3-methoxyphenoxy)phenyl)-1H-pyrazolo[4,3-c]pyridin-1-yl)-2-azaspiro[3.3]heptan-2-yl)prop-2-en-1-one]
0.01 to 0.1 µM	COc1cccc(Oc2ccc(-c3nn([C@@H]4CCCN(C(=O)C(N)=O)C4)c4c(OC)cncc34)cc2)c1F [Compound 120, (R)-2-(3-(3-(4-(2-fluoro-3-methoxyphenoxy)phenyl)-7-methoxy-1H-pyrazolo[4,3-c]pyridin-1-yl)piperidin-1-yl)-2-oxoacetamide]
0.01 to 0.1 µM	C=CC(=O)N1CCC[C@@H](n2nc(-c3ccc(N4CCC(N5CCCCC5)CC4)cc3)c3cnccc32)C1 [Compound 110, (R)-1-(3-(3-(4-([1,4′-bipiperidin]-1′-yl)phenyl)-1H-pyrazolo [4,3-c]pyridin-1-yl)piperidin-1-yl)prop-2-en-1-one]
0.01 to 0.1 µM	C=CC(=O)N1CCC[C@@H](n2nc3ccncc3c2-c2ccc(Oc3cccc(F)c3Cl)cc2)C1 [Compound 39, (R)-1-(3-(3-(4-(2-chloro-3-fluorophenoxy)phenyl)-2H-pyrazolo[4,3-c]pyridin-2-yl)piperidin-1-yl)prop-2-en-1-one]
< 0.01 µM	C=CC(=O)N1CC[C@@H](n2nc(-c3ccc(Oc4cccc(C)c4F)cc3)c3cnccc32)C1 [Compound 47, (R)-1-(3-(3-(4-(2-fluoro-3-methylphenoxy)phenyl)-1H-pyrazolo[4,3-c]pyridin-1-yl)pyrrolidin-1-yl)prop-2-en-1-one]
0.1 to 1 µM	C=CC(=O)N1CCC[C@@H](n2nc(-c3ccc(Oc4cccc5c4OCO5)cc3)c3cnccc32)C1 [Compound 8, (R)-1-(3-(3-(4-(benzo[d][1,3]dioxol-4-yloxy)phenyl)-1H-pyrazolo[4,3-c]pyridin-1-yl)piperidin-1-yl)prop-2-en-1-one]
0.1 to 1 µM	C=CC(=O)N1CC[C@@H](n2nc(-c3ccc(N4CCN(C)CC4)cc3)c3cnccc32)C1 [Compound 112, (R)-1-(3-(3-(4-(4-methylpiperazin-1-yl)phenyl)-1H-pyrazolo [4,3-c]pyridin-1-yl)pyrrolidin-1-yl)prop-2-en-1-one]
0.01 to 0.1 µM	C=CC(=O)N1CCC(n2nc(-c3ccc(NC(=O)c4cccc(C(F)(F)F)c4)cc3)c3cnccc32)C1 (stereo not shown) [Compound 116, N-{4-[1-(1-Acryloyl-pyrrolidin-3-yl)-1H-pyrazolo[4,3-c]pyridin-3-yl]-phenyl}-3-trifluoromethyl-benzamide]
0.1 to 1 µM	COc1cccc(Oc2ccc(-c3nn([C@@H]4CCCN(C(=O)C5CC6(C5)CN(S(=O)(=O)c5ccc(C)cc5)C6)C4)c4c(OC)cncc34)cc2)c1F [Compound 74, (R)-(3-(3-(4-(2-fluoro-3-methoxyphenoxy)phenyl)-7-methoxy-1H-pyrazolo [4,3-c]pyridin-1-yl)piperidin-1-yl)(2-tosyl-2-azaspiro[3.3]heptan-6-yl)methanone]
0.01 to 0.1 µM	C=CC(=O)N1CC[C@@H](n2nc(-c3ccc(Oc4cccc(C)c4C)cc3)c3cnccc32)C1 [Compound 12, (R)-1-(3-(3-(4-(2,3-dimethylphenoxy)phenyl)-1H-pyrazolo[4,3-c]pyridin-1-yl)pyrrolidin-1-yl)prop-2-en-1-one]
0.01 to 0.1 µM	C=CC(=O)N1CC[C@@H](n2nc(-c3ccc(Oc4cccc(Cl)c4C)cc3)c3cnccc32)C1 [Compound 60, (R)-1-(3-(3-(4-(3-chloro-2-methylphenoxy)phenyl)-1H-pyrazolo[4,3-c]pyridin-1-yl)pyrrolidin-1-yl)prop-2-en-1-one]

SMILES	IC50
C=CC(=O)N1CCC[C@@H](n2nc(-c3ccc(Oc4cccc(OC)c4F)cc3)c3cncc(OCCCC)c32)C1 [Compound 76, (R)-1-(3-(7-butoxy-3-(4-(2-fluoro-3-methoxyphenoxy)phenyl)-1H-pyrazolo[4,3-c]pyridin-1-yl)piperidin-1-yl)prop-2-en-1-one]	< 0.01 µM
CCC(=O)N1CCC[C@@H](n2nc(-c3ccc(Oc4cccc(OC)c4F)cc3)c3cncc(OC)c32)C1 [Compound 89, (R)-1-(3-(3-(4-(2-fluoro-3-methoxyphenoxy)phenyl)-7-methoxy-1H-pyrazolo[4,3-c]pyridin-1-yl)piperidin-1-yl)propan-1-one]	0.1 to 1 µM
